target: T1, Axl (Homo sapiens, UniProt P30530); test: Axl NanoBRET intracellular kinase assay (intracellular binding, Cell Binding); design: host or cells: HEK-293; settings: HEK-293 cells transfected with Axl-NanoLuc fusion vector; 0.35 μM K-5 NanoBRET tracer
T1 sequence (P30530 26-894): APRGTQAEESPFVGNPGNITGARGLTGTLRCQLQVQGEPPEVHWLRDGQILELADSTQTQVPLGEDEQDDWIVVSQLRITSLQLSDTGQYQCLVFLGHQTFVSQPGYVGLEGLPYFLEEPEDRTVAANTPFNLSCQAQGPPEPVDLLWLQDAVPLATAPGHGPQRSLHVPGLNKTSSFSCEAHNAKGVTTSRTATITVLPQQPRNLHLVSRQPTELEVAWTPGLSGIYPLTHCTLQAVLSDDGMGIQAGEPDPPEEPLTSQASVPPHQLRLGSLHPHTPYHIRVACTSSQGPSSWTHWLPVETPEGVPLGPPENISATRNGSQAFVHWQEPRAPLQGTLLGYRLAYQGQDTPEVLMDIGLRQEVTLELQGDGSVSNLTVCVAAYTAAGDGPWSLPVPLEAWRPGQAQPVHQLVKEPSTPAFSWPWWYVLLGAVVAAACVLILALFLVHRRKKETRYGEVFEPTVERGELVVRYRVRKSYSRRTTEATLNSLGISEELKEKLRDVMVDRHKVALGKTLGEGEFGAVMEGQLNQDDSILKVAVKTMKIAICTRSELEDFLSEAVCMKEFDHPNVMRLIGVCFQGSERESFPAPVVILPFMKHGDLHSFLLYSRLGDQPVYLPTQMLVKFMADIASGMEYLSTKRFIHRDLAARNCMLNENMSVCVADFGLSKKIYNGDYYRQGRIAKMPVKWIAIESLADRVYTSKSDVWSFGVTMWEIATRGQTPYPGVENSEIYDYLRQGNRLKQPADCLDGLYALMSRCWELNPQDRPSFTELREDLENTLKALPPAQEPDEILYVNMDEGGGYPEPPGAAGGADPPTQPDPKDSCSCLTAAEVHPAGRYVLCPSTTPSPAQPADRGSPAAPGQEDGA
Procedure, shortened: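 HEK-293 cells transiently expressing Axl-NanoLuc fusion were pre-incubated with compound for 1 h at 37 °C (0.5% DMSO), then with 0.35 μM K-5 tracer for 2 h. Tracer displacement read as reduced BRET ratio (610/450 nm); IC50 from 4-parameter fit.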

Row | Structure (SMILES) | IC50 [nM]
1 | C[C@H]1CCCN1C1CCc2ccc(-c3cnc4[nH]nc(-c5ccc(S(=O)(=O)C6CC6)cc5)c4c3)cc2CC1 (stereo partly drawn) [Example 24, 3-(4-(Cyclopropylsulfonyl)phenyl)-5-(7-((S)-2-methylpyrrolidin-1-yl)-6,7,8,9-tetrahydro-5H-benzo[7]annulen-2-yl)-1H-pyrazolo[3,4-b]pyridine] | < 100
2 | C[C@@H]1CCCN1C1(C)CCc2ccc(-c3cnc4[nH]nc(-c5cnc(C(C)(C)O)c(Cl)c5)c4c3)cc2CC1 (stereo partly drawn) [Example 98, 2-[3-Chloro-5-(5-{7-methyl-7-[(2R)-2-methylpyrrolidin-1-yl]-6,7,8,9-tetrahydro-5H-benzo[7]annulen-2-yl}-1H-pyrazolo[3,4-b]pyridin-3-yl)pyridin-2-yl]propan-2-ol] | 100 to 1000
3 | CC(C)(O)c1ccc(-c2n[nH]c3ncc(-c4ccc5c(c4)CCC(N4CCC[C@@H]4CO)CC5)cc23)cc1Cl (stereo partly drawn) [Example 21, 2-[2-Chloro-4-(5-{7-[(2R)-2-(hydroxymethyl)pyrrolidin-1-yl]-6,7,8,9-tetrahydro-5H-benzo[7]annulen-2-yl}-1H-pyrazolo[3,4-b]pyridin-3-yl)phenyl]propan-2-ol] | < 100

Now from value to molecule:

Row | IC50 [nM] | Structure (SMILES)
4 | 100 to 1000 | COCCNCc1ccc(-c2n[nH]c3ncc(-c4ccc5c(c4)CCC(C)(N4CCC[C@H]4C)CC5)cc23)cc1 (stereo partly drawn) [Example 108, (2-Methoxyethyl)({[4-(5-{7-methyl-7-[(2R)-2-methylpyrrolidin-1-yl]-6,7,8,9-tetrahydro-5H-benzo[7]annulen-2-yl}-1H-pyrazolo[3,4-b]pyridin-3-yl)phenyl]methyl})amine]
5 | 100 to 1000 | Cc1cc(-c2n[nH]c3ncc(-c4ccc5c(c4)CCN(C4CC4)CC5)cc23)ccc1C(=O)N1CCNCC1 [Example 119, 3-Cyclopropyl-7-{3-[3-methyl-4-(piperazine-1-carbonyl)phenyl]-1H-pyrazolo[3,4-b]pyridin-5-yl}-2,3,4,5-tetrahydro-1H-3-benzazepine]

Reference: patent US20240246967A1, “AXL COMPOUNDS” (ARCUS BIOSCIENCES, INC., priority 2021, published 2024)
